Measurements taken from patent US6387922B2, “Annulated azole derivatives useful as microbicidal agents” (Bayer Aktiengesellschaft, priority 1997, dated 2002).

How the values were obtained:
Plasmopara viticola = assay: Plasmopara Test (grapevine)/protective; assay type: in vivo; settings: grapevine young plants, protective spray, application rate 100 g/ha, evaluation 6 days after inoculation; 0% = as control, 100% = no infection
Description: Plasmopara Test (grapevine)/protective
(§1) Solvent: 47 parts by weight of acetone
(§2) Emulsifier: 3 parts by weight of alkyl-aryl polyglycol ether
To produce a suitable preparation of the active compound, 1 part by weight of active compound is mixed with the stated amounts of solvent and emulsifier, and the concentrate is diluted with water to the desired concentration.
To test for protective activity, young plants are sprayed with a preparation of active compound at the stated application rate. After the spray coating has dried on, the plants are inoculated with an aqueous spore suspension of Plasmopara viticola and then remain in an incubation cabin at approximately 20° C. and 100% relative atmospheric humidity for 1 day. The plants are then placed in a greenhouse at approximately 21° C. and approximately 90% atmospheric humidity for 5 days. The plants are then moistened and placed in an incubation cabin for 1 day.
Evaluation is carried out 6 days after the inoculation. 0% means an efficacy which corresponds to that of the control, whereas an efficacy of 100% means that no infection is observed.

Venturia inaequalis = assay: Venturia Test (Apple)/protective; assay type: in vivo; settings: apple young plants, protective spray, application rate 100 g/ha, evaluation 12 days after inoculation; 0% = as control, 100% = no infection
Description: Venturia Test (Apple)/protective
as §1, §2
To produce a suitable preparation of active compound, 1 part by weight of active compound is mixed with the stated amounts of solvent and emulsifier, and the concentrate is diluted with water to the desired concentration.
To test for protective activity, young plants are sprayed with the preparation of active compound at the stated application rate. After the spray coating has dried on, the plants are inoculated with an aqueous conidia suspension of the causative organism of apple scab Venturia inaequalis and then remain in an incubation cabin at approximately 20° C. and 100% relative atmospheric humidity for 1 day.
The plants are then placed in a greenhouse at approximately 21° C. and a relative atmospheric humidity of approximately 90%.
Evaluation is carried out 12 days after the inoculation. 0% means an efficacy which corresponds to that of the control, whereas an efficacy of 100% means that no infection is observed.

## Cc1noc(C)c1S(=O)(=O)n1nnc2ccccc21 [1-(3,5-dimethyl-isoxazol-4-sulphonyl)-1H-benzotriazole, reference compound]
Plasmopara viticola
  Efficacy in %: 49%
Venturia inaequalis
  Efficacy in %: 0%

## Cc1noc(C)c1S(=O)(=O)n1cnc2cnccc21 [Example 2, 1-(3,5-dimethyl-isoxazole-4-sulphonyl)-1H-imidazo[4,5-c]pyridine]
Plasmopara viticola
  Efficacy in %: 90%
Venturia inaequalis
  Efficacy in %: 95%
other
  melting point: 130 to 135 °C
